Data published in patent US5596002A, “Method of treating chloroquine-resistant malaria with aminoquinoline derivatives” (Hoffmann-La Roche Inc., priority 1993, dated 1997).
Values after ≈ are worked out from the molar mass of the structure shown. Where two headings read alike, the source gives them in different places.

Legend:
[1] = system: Plasmodium falciparum, chloroquine-resistant strain K1; assay: activity against P. falciparum in vitro, strain K1; assay type: cell-based; conditions: Plasmodium falciparum, read-out: IC50 (50% growth inhibition)
Method in brief: (§1)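 Asynchronous cultures, human A+ RBC, 0.7% parasitemia/2.5% Hct; RPMI 1640 + 25 mM HEPES, 25 mM NaHCO3, 10% human serum; 37° C, 3% O2, 4% CO2, 93% N2; 48 h-72 h. ^3H-hypoxanthine uptake; IC50 via logit regression.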

[2] = system: Plasmodium falciparum, chloroquine-sensitive strain HB3; assay: activity against P. falciparum in vitro, strain HB3; assay type: cell-based; conditions: read-out: IC50 (50% growth inhibition)
Method in brief: as §1

[3] = system: Plasmodium falciparum, chloroquine-resistant strain RFCR3; assay: activity against P. falciparum in vitro, strain RFCR3; assay type: cell-based; conditions: read-out: IC50 (50% growth inhibition)
Method in brief: as §1

[4] = system: Plasmodium falciparum, chloroquine-sensitive strain Ro7 3; assay: activity against P. falciparum in vitro, strain Ro7 3; assay type: cell-based; conditions: read-out: IC50 (50% growth inhibition)
Method in brief: as §1

[5] = system: Plasmodium falciparum, chloroquine-resistant strain 7G8; assay: activity against P. falciparum in vitro, strain 7G8; assay type: cell-based; conditions: read-out: IC50 (50% growth inhibition)
Method in brief: as §1

[6] = system: Plasmodium falciparum, chloroquine-resistant strain ItG2 F6; assay: activity against P. falciparum in vitro, strain ItG2 F6; assay type: cell-based; conditions: read-out: IC50 (50% growth inhibition)
Method in brief: as §1

[7] = system: Plasmodium falciparum, chloroquine-resistant strain W2; assay: activity against P. falciparum in vitro, strain W2; assay type: cell-based; conditions: read-out: IC50 (50% growth inhibition)
Method in brief: as §1

[8] = system: Plasmodium falciparum, chloroquine-sensitive strain RFMEF3; assay: activity against P. falciparum in vitro, strain RFMEF3; assay type: cell-based; conditions: read-out: IC50 (50% growth inhibition)
Method in brief: as §1

[9] = system: Plasmodium falciparum, chloroquine-sensitive strain FCH5C2; assay: activity against P. falciparum in vitro, strain FCH5C2; assay type: cell-based; conditions: read-out: IC50 (50% growth inhibition)
Method in brief: as §1

[10] = system: Plasmodium falciparum, chloroquine-resistant strain W2 Mef; assay: activity against P. falciparum in vitro, strain W2 Mef; assay type: cell-based; conditions: 48 h-72 h, read-out: IC50 (50% growth inhibition)
Method in brief: as §1

[11] = system: Plasmodium berghei (strain ANKA); assay: activity against Plasmodium berghei in vivo (infected mice); conditions: for ED50: read-out: ED50 (po)
Protocol: Test method for the determination of the activity against Plasmodium berghei in vivo
The preparations according to the present invention were tested on mice infected with malaria pathogens (Plasmodium berghei). Male albino mice (IBM:MORO(SPF), FUELLINSDORF) weighing about 25 g were used as the test animals. They were kept in climatized rooms at 21°-22° C. in groups of 5 animals per cage. They received ad libitum a diet feed with a low PABA content ("NAFAG FUTTER" No. 9009 PAB-45, PABA content 45 mg/kg) and drinking water. On the first day of the test (D0) the test animals were infected with Plasmodium berghei (strain ANKA). For this there was used heparinized blood of a donor mouse with about 30% parasitemia, which was diluted with physiological saline such that it contains 10^8 parasitized erythrocytes per ml. 0.2 ml of this suspension was injected intravenously (i.v.) into the mice to be treated and into the control mice. In untreated control animals the parasitemia normally reaches 30-40% on the third day after the infection (D+3) and the test animals die between days +5 and +7.
The substances to be tested were dissolved or suspended in distilled water or in a mixture of 7% Tween 80, 3% alcohol (96%) and water. Usually, 0.25 ml of this solution or suspension was administered once subcutaneously and perorally to groups of 5 test animals. Treatment was effected 24 hours after the infection. 10 control animals were treated in the same manner with solvent or suspension medium per test.
All substances were tested in a first test in a single dosage of 10 mg/kg. Only those substances which in this test (10 mg/kg) had shown a parasitaemia reduction of 90% were used for the titration.
48 hours after the treatment (D+3), blood smears were prepared from all animals using blood from tail veins and were stained with Giemsa. The average erythrocyte infection rate (parasitemia in %) in the control groups as well as in the groups which had been treated with the test compounds was determined by counting under a microscope. The difference in the average values of the infection rates of control group (100%) and treated groups was calculated and expressed as a percentage reduction (GI %). The ED50 or ED90 was determined mathematically by means of the JMP programme (nonlinear fit). The ED50 (ED90) in mg/kg is that dose which after single administration reduces the average erythrocyte infection rate by 50% (90%) in comparison to the control group.
Table 2 below contains data with respect to the activity measured against Plasmodium berghei in mice: GI % is the percentage reduction in the parasitemia after a single dose of 10 mg/kg of the test substance administered perorally (po) or subcutaneously (sc); ED50 and ED90 are the effective doses of the test substance administered perorally or subcutaneously.

[12] = system: Plasmodium falciparum, chloroquine-resistant strain Indo; assay: activity against P. falciparum in vitro, strain Indo; assay type: cell-based; conditions: read-out: IC50 (50% growth inhibition)
Method in brief: as §1

[13] = system: Plasmodium falciparum, chloroquine-sensitive strain NF54; assay: activity against P. falciparum in vitro, strain NF54; assay type: cell-based; conditions: Plasmodium falciparum, read-out: IC50 (50% growth inhibition)
Method in brief: as §1

[14] = chloroquine-resistant strain K1, 48 h-72 h
[15] = chloroquine-sensitive strain HB3, 48 h-72 h
[16] = chloroquine-resistant strain RFCR3, 48 h-72 h
[17] = chloroquine-sensitive strain Ro7 3, 48 h-72 h
[18] = chloroquine-resistant strain 7G8, 48 h-72 h
[19] = chloroquine-resistant strain ItG2 F6, 48 h-72 h
[20] = chloroquine-resistant strain W2, 48 h-72 h
[21] = chloroquine-sensitive strain RFMEF3, 48 h-72 h
[22] = chloroquine-sensitive strain FCH5C2, 48 h-72 h
[23] = mice, single administration po, dose reducing average erythrocyte infection rate by 50%
[24] = mice, single dose 10 mg/kg po, 48 hours after treatment (D+3), read-out: GI % at 10 mg/kg (po): percentage reduction in the parasitemia
[25] = mice, single dose 10 mg/kg sc, 48 hours after treatment (D+3), read-out: GI % at 10 mg/kg (sc): percentage reduction in the parasitemia
[26] = chloroquine-resistant strain Indo, 48 h-72 h
[27] = chloroquine-sensitive strain NF54, 48 h-72 h

Structure (SMILES) | IC50 [1, 14] | IC50 [2, 15] | IC50 [3, 16] | IC50 [4, 17] | IC50 [5, 18] | IC50 [6, 19] | IC50 [7, 20] | IC50 [8, 21] | IC50 [9, 22] | IC50 [10] | ED50 [11, 23] | inhibition in vivo at 10 mg/kg [11, 24] | inhibition in vivo at 10 mg/kg [11, 25] | IC50 [12, 26] | IC50 [13, 27] | other results
Clc1ccc2c(N[C@@H]3CCC[C@H]3N3CCCC3)ccnc2c1 (relative stereo) [Example 11a, (1RS,2RS)-N1-(7-Chloro-quinolin-4-yl)-(2-pyrrolidin-1-yl-cyclopentyl)-amine] | 15 ng/mL (≈ 0.0475 µM) | 6 ng/mL (≈ 0.019 µM) | 18 ng/mL (≈ 0.057 µM) | 4 ng/mL (≈ 0.0127 µM) | 14 ng/mL (≈ 0.0443 µM) | 8 ng/mL (≈ 0.0253 µM) | 17 ng/mL (≈ 0.0538 µM) | 7 ng/mL (≈ 0.0222 µM) | 7 ng/mL (≈ 0.0222 µM) | 15 ng/mL (≈ 0.0475 µM) | 4.5 mg/kg | 99% | 99.6% | 15 ng/mL (≈ 0.0475 µM) | 7 ng/mL (≈ 0.0222 µM) | –
CCN(CC)CCCC(C)Nc1ccnc2cc(Cl)ccc12 (centres unmarked) [Chloroquine diphosphate, reference compound] | – | – | – | – | – | – | – | – | – | 79 ng/mL | – | – | – | – | – | IC50 ([1]; K1, 48 h): 11 ng/mL; IC50 ([2]; HB3, 48 h): 11 ng/mL; IC50 ([3]; 48 h): 130 ng/mL; IC50 ([4]; 48 h): 8 ng/mL; IC50 ([5]; 7G8, 48 h): 81 ng/mL; IC50 ([6]; 48 h): 68 ng/mL; IC50 ([7]; W2, 48 h): 123 ng/mL; IC50 ([8]; 48 h): 14 ng/mL; IC50 ([9]; 48 h): 12 ng/mL; ED50 ([11]; Erythrocyte, po): 2.4 mg/kg; inhibition in vivo at 10 mg/kg ([11]; po, 48 h, read-out: GI % at 10 mg/kg (po): percentage reduction in the parasitemia): 99.9%; inhibition in vivo at 10 mg/kg ([11]; sc, 48 h, read-out: GI % at 10 mg/kg (sc): percentage reduction in the parasitemia): 99.9%; IC50 ([12]; 48 h): 52 ng/mL; IC50 ([13]; NF54, 48 h): 8 ng/mL
CN1CCCC1CNc1ccnc2cc(Cl)ccc12 (centres unmarked) [Example 12a, (7-Chloro-quinolin-4-yl)-(1-methyl-pyrrolidin-2-yl-methyl)-amine] | 9 ng/mL (≈ 0.0326 µM) | 10 ng/mL (≈ 0.0363 µM) | 11 ng/mL (≈ 0.0399 µM) | 7 ng/mL (≈ 0.0254 µM) | 8 ng/mL (≈ 0.029 µM) | 5 ng/mL (≈ 0.0181 µM) | 9 ng/mL (≈ 0.0326 µM) | 8 ng/mL (≈ 0.029 µM) | 8 ng/mL (≈ 0.029 µM) | 6 ng/mL (≈ 0.0218 µM) | 4.8 mg/kg | 91% | 91% | 11 ng/mL (≈ 0.0399 µM) | 7 ng/mL (≈ 0.0254 µM) | –
Clc1ccc2c(NCCCN3CCCCC3)ccnc2c1 [Example 18, (7-Chloro-quinolin-4-yl)-(3-piperidin-1-yl-propyl)-amine] | 14 ng/mL (≈ 0.0461 µM) | 8 ng/mL (≈ 0.0263 µM) | 8 ng/mL (≈ 0.0263 µM) | 7 ng/mL (≈ 0.023 µM) | 12 ng/mL (≈ 0.0395 µM) | 7 ng/mL (≈ 0.023 µM) | 11 ng/mL (≈ 0.0362 µM) | 8 ng/mL (≈ 0.0263 µM) | 4 ng/mL (≈ 0.0132 µM) | 12 ng/mL (≈ 0.0395 µM) | 6.9 mg/kg | 83% | 96% | 7 ng/mL (≈ 0.023 µM) | 4 ng/mL (≈ 0.0132 µM) | –
Clc1ccc2c(NC3CCN(Cc4ccccc4)CC3)ccnc2c1 [Example 19, (1-Benzyl-piperidin-4-yl)-(7-chloro-quinolin-4-yl)-amine] | 9 ng/mL (≈ 0.0256 µM) | 4 ng/mL (≈ 0.0114 µM) | 10 ng/mL (≈ 0.0284 µM) | 3 ng/mL (≈ 0.00853 µM) | 7 ng/mL (≈ 0.0199 µM) | 6 ng/mL (≈ 0.0171 µM) | 10 ng/mL (≈ 0.0284 µM) | 5 ng/mL (≈ 0.0142 µM) | 5 ng/mL (≈ 0.0142 µM) | 11 ng/mL (≈ 0.0313 µM) | 5.3 mg/kg | 99% | 99.6% | 7 ng/mL (≈ 0.0199 µM) | 7 ng/mL (≈ 0.0199 µM) | –
CC1CC(C)(C)C(CNc2ccnc3cc(Cl)ccc23)C1N (centres unmarked) [Example 20, (5-Amino-2,2,4-trimethyl-cyclopentylmethyl)-(7-chloro-quinolin-4yl)-amine] | 10 ng/mL (≈ 0.0315 µM) | 4 ng/mL (≈ 0.0126 µM) | 14 ng/mL (≈ 0.044 µM) | 7 ng/mL (≈ 0.022 µM) | 15 ng/mL (≈ 0.0472 µM) | 7 ng/mL (≈ 0.022 µM) | 11 ng/mL (≈ 0.0346 µM) | 4 ng/mL (≈ 0.0126 µM) | 7 ng/mL (≈ 0.022 µM) | 14 ng/mL (≈ 0.044 µM) | 4.4 mg/kg | 99.9% | 99.9% | 8 ng/mL (≈ 0.0252 µM) | 3 ng/mL (≈ 0.00944 µM) | –
C=CCN(C)CCNc1ccnc2cc(Cl)ccc12 [Example 33, N1 -Allyl-N2-(7-chloro-quinolin-4-yl)-N1-methyl-ethane-1,2-diamine] | 14 ng/mL (≈ 0.0508 µM) | 15 ng/mL (≈ 0.0544 µM) | 18 ng/mL (≈ 0.0653 µM) | 10 ng/mL (≈ 0.0363 µM) | 18 ng/mL (≈ 0.0653 µM) | 9 ng/mL (≈ 0.0326 µM) | 21 ng/mL (≈ 0.0761 µM) | 16 ng/mL (≈ 0.058 µM) | 15 ng/mL (≈ 0.0544 µM) | 15 ng/mL (≈ 0.0544 µM) | 5.9 mg/kg | 97% | 97% | 14 ng/mL (≈ 0.0508 µM) | 8 ng/mL (≈ 0.029 µM) | –
CN(C)C(C)(C)CNc1ccnc2cc(Cl)ccc12 [Example 33b, N1-(7-Chloro-quinolin-4-yl)-2,N2,N2-trimethyl-propane-1,2-diamine] | 17 ng/mL (≈ 0.0612 µM) | 12 ng/mL (≈ 0.0432 µM) | 10 ng/mL (≈ 0.036 µM) | 4 ng/mL (≈ 0.0144 µM) | 18 ng/mL (≈ 0.0648 µM) | 17 ng/mL (≈ 0.0612 µM) | 9 ng/mL (≈ 0.0324 µM) | 8 ng/mL (≈ 0.0288 µM) | 11 ng/mL (≈ 0.0396 µM) | 18 ng/mL (≈ 0.0648 µM) | – | 99.9% | 99.9% | 9 ng/mL (≈ 0.0324 µM) | 8 ng/mL (≈ 0.0288 µM) | –
